According to US7258999B2, “PTH responsive gene” (Wyeth, priority 2002, dated 2007):

Columns and labels:
[1] = test system: PAIGB expression in U2OS cells; assay: RT-PCR and real time PCR of PAIGB expression in U2OS cells; assay type: cell-based, human; details: 1 or 10 nM
Method: RNA samples were subject to RT-PCR and Taq-man analysis using probe and primers to PAIGB polynucleotide sequences and GAPDH as well as 18S ribosomal RNA. RT-PCR was done using TaKaRa kit (Panvera, Shiga, Japan) according to manufacturer recommendation. RT reaction was done under following conditions: 30° C. for 10 min, 42° C. for 50 min, 99° C. for 5 min and 4° C. for 5 min. PCR conditions were: 94° C. for 5 min, 35 cycles of 94° C. for 2 min, 62° C. for 30″, 72° C. for 1 min and 30 sec, and 72° C. for 10 min. The PCR products were separated on 1% agarose gel.
Applicants performed multiplex real time PCR (TaqMan) analysis on previously DNAsed samples using gene specific probe and primers and 18S ribosomal RNA probe and primer sets purchased from Applied Biosystem. (Foster City, Calif.) The samples were DNAsed according to the protocol provided by Ambion (DNA-free kit). TaqMan probe and primers for PAIGB was identify using Primer Express computer program. The sequence for rat PAIGB TaqMan probe was 6FAM-5′[…] (SEQ ID NO: 16) forward and reverse primers were 5′[…] 3′ (SEQ ID NO:17) and 5′ […] 3′ (SEQ ID NO:18) respectively. The final concentrations for probes were 500 nM and 40 nM for PAIGB and 18S ribosomal RNA or GAPDH respectively. […]

PAIGB expression [2] = assay: Real time PCR of PAIGB expression in rat tibia; assay type: in vivo
Method: RNA isolation was performed on bone as well as from different cell lines used during experimentation. RNA was isolated from rat tibiae as follows. Following euthanasia by CO2 asphyxiation tibiae were dissected free of soft tissue as rapidly as possible with autoclaved instruments, wiped with autoclaved gauze soaked in ethanol and the epiphysis broken off at the proximal growth plate by hand and discarded. The tibia was then cut transversely with bone cutters just distal to the proximal growth plate and just proximal to the distal tibia-fibula junction to expose the trabecular bone and the bone marrow. The trabecular bone and marrow cavity was flushed with ice cold sterile PBS using a Lancer liquid transfer pipette (Oxford Labware, St. Louis, Mo.) to remove the marrow and the cleaned bone placed in liquid nitrogen.
Applicants performed multiplex real time PCR (TaqMan) analysis on previously DNAsed samples using gene specific probe and primers and 18S ribosomal RNA probe and primer sets purchased from Applied Biosystem. (Foster City, Calif.) The samples were DNAsed according to the protocol provided by Ambion (DNA-free kit). TaqMan probe and primers for PAIGB was identify using Primer Express computer program. The sequence for rat PAIGB TaqMan probe was 6FAM-5′[…] (SEQ ID NO: 16) forward and reverse primers were 5′[…] 3′ (SEQ ID NO:17) and 5′ […] 3′ (SEQ ID NO:18) respectively. The final concentrations for probes were 500 nM and 40 nM for PAIGB and 18S ribosomal RNA or GAPDH respectively. The concentrations of the primers were 500 nM for PAIGB forward and reversed primers while 18S primers were 10 and 20 nM for forward and reversed primer respectively or 40 nM for GAPDH primers. Standards for rat samples were made from rat tibia or brain RNA in the range of 250 ng to 0.1 ng, while standards for mouse specific TaqMan were made from mouse brain RNA and human standards from human brain RNA (Clonetech, Palo Alto, Calif.) spanning the same range of concentration. Primers and probes for mouse PAIGB were: forward 5′ […] 3′ (SEQ ID NO:19), reverse, 5′ […] 3′ (SEQ ID NO:20) anti-sense and probe 5′ 6FAM-[…] (SEQ ID NO:21). Primers and probes for human PAIGB were: forward 5′ […] 3′ (SEQ ID NO:22), reverse 5′ […] 3′(SEQ ID NO:23), and PROBE 5′ 6FAM-[…] 3′(SEQ ID NO: 24). The Taq-man analysis was done using ABI 7700 Sequence Detector under following conditions: 30 min at 48° C., 10 min at 95° C. and 40 cycles of 15 sec at 95° C. and 60 sec at 60° C. Analysis of real-time PCR analysis was performed using (Sequence Detector, Macintosh) program.
The initial experiments measured the expression of PAIGB in the rat tibia after 8 days of treatment. In order to examine the time course of PTH action on PAIGB expression, experiments were performed on rats treated with intermittent PTH injections (40 μg/kg body weight) and tibias were collected for RNA isolation as well as evaluation in BMD changes. Time points of sample collection were 6 hours, 2 days, 4 days and 8 days after intermittent PTH treatment. Real time PCR analysis was performed on isolated RNA samples using above described primers.
The observed increase in PAIGB expression in bone treated with PTH is dose-dependent (FIG. 10B). OVX rats with established osteopenia were treated with increasing concentration of human PTH (1-34): 5, 10, 20, 40 and 80 μg/kg of body weight for 8 days with one daily injection. Six hours after last injection animals were scarified and bone samples were harvested for RNA isolation as described in Experimental Procedure section.

PAIGB expression [3] = assay: Real time PCR of PAIGB in brain, kidney and heart after intermittent PTH; assay type: in vivo, rat; details: intermittent injection
Text: Applicants performed multiplex real time PCR (TaqMan) analysis on previously DNAsed samples using gene specific probe and primers and 18S ribosomal RNA probe and primer sets purchased from Applied Biosystem. (Foster City, Calif.) The samples were DNAsed according to the protocol provided by Ambion (DNA-free kit). TaqMan probe and primers for PAIGB was identify using Primer Express computer program. The sequence for rat PAIGB TaqMan probe was 6FAM-5′[…] (SEQ ID NO: 16) forward and reverse primers were 5′[…] 3′ (SEQ ID NO:17) and 5′ […] 3′ (SEQ ID NO:18) respectively. The final concentrations for probes were 500 nM and 40 nM for PAIGB and 18S ribosomal RNA or GAPDH respectively. The concentrations of the primers were 500 nM for PAIGB forward and reversed primers while 18S primers were 10 and 20 nM for forward and reversed primer respectively or 40 nM for GAPDH primers. Standards for rat samples were made from rat tibia or brain RNA in the range of 250 ng to 0.1 ng, while standards for mouse specific TaqMan were made from mouse brain RNA and human standards from human brain RNA (Clonetech, Palo Alto, Calif.) spanning the same range of concentration. Primers and probes for mouse PAIGB were: forward 5′ […] 3′ (SEQ ID NO:19), reverse, 5′ […] 3′ (SEQ ID NO:20) anti-sense and probe 5′ 6FAM-[…] (SEQ ID NO:21). Primers and probes for human PAIGB were: forward 5′ […] 3′ (SEQ ID NO:22), reverse 5′ […] […]

Which results are given for human PTH (1-34)?
PAIGB expression in human U2OS osteoblastic cells [1]: induction; increase of PAIGB expression in bone (PAIGB expression [2]; 40 μg/kg, one daily injection, 8 days, OVX rats): 10 fold; increase of PAIGB expression in bone (PAIGB expression [2]; 80 μg/kg, one daily injection, 8 days, OVX rats): 20 fold; effect on PAIGB expression in bone (PAIGB expression [2]; 5, 10 and 20 μg/kg, one daily injection, 8 days, OVX rats): did not have any effect; PAIGB expression over vehicle treated rats (PAIGB expression [2]; 4 days of intermittent injection): 20 fold; effect on PAIGB expression in tibia (PAIGB expression [2]; intermittent 40 μg/kg, days 4 and 8, compared with day 2): at the same magnitude; increase of PAIGB expression in tibia (PAIGB expression [2]; intermittent 40 μg/kg, two days): ~20 fold; changes in PAIGB expression in brain, kidney and heart (PAIGB expression [3]): did not produce any changes
